Values joined by “and” are separate entries in the source; they are usually repeats but may differ in a detail not shown here. Equal entries are not always repeated. Where two headings read alike, the source gives them in different places.
Assays:
[1] = tested on: brown mustard (Brassica juncea, BRSJU); test: Greenhouse postemergence trial, % visual injury; format: in vivo; conditions: BRSJU; 2,3,5-TIBA 140 g ai/ha
[2] = tested on: winter wheat (TRZAW); test: Greenhouse postemergence trial, crop phytotoxicity (% visual injury); conditions: TRZAW
[3] = tested on: winter rape (BRSNW, Brassica napus); test: Greenhouse postemergence trial, % visual injury; format: in vivo; conditions: for % visual injury, Obs: BRSNW
[4] = tested on: Chinese kale (Brassica alboglabra, BRSAG); test: Greenhouse postemergence trial, % visual injury; format: in vivo; conditions: BRSAG
[5] = tested on: velvetleaf (Abutilon theophrasti, ABUTH); test: Greenhouse postemergence trial, % visual injury; format: in vivo; conditions: Abutilon theophrasti, post-emergence, read-out: % visual injury, Obs; for pest or weed control at 5 g/ha / pest or weed control at 10 g/ha: ABUTH
[6] = tested on: spring rape (Brassica napus, BRSNN); test: Greenhouse postemergence trial, % visual injury; conditions: for % visual injury, Obs: BRSNN
[7] = tested on: turnip (Brassica rapa, BRSRR); test: Greenhouse postemergence trial, % visual injury; format: in vivo; conditions: for % visual injury, Obs: BRSRR
[8] = tested on: wild pansy (Viola tricolor, VIOTR); test: Greenhouse postemergence trial, % visual injury; conditions: for % visual injury, Obs: VIOTR
[9] = tested on: wild buckwheat (Polygonum convolvulus, POLCO); test: Greenhouse postemergence trial, % visual injury; format: in vivo; conditions: for % visual injury, Obs: POLCO
[10] = tested on: Roundup Ready rape (Brassica napus, BRSNN-RR); test: Greenhouse postemergence trial, % visual injury; format: in vivo
[11] = tested on: common rice (ORYSA); test: Greenhouse postemergence trial, crop phytotoxicity (% visual injury); conditions: ORYSA
[12] = tested on: maize (ZEAMX); test: as above; conditions: ZEAMX
[13] = tested on: sunflower (Helianthus annus, HELAN); test: Greenhouse postemergence trial, % visual injury; format: in vivo; conditions: HELAN
[14] = tested on: Russian thistle (Salsola iberica, SASKR); test: Greenhouse postemergence trial, % visual injury; format: in vivo; conditions: SASKR
[15] = tested on: black mustard (Brassica nigra, BRSNI); test: Greenhouse postemergence trial, % visual injury; format: in vivo
[16] = tested on: ivyleaf morningglory (Ipomoea hederacea, IPOHE); test: Greenhouse postemergence trial, % visual injury; conditions: Ipomoea, post-emergence
[17] = tested on: blackgrass (Alopecurus myosuroides, ALOMY); test: Greenhouse postemergence trial, % visual injury; format: in vivo
[18] = tested on: maize (ZEAMX); conditions: maize (Zea mays), in vivo
[19] = tested on: winter wheat (TRZAW); conditions: winter wheat (Triticum aestivum), in vivo
[20] = tested on: poinsettia (Euphorbia heterophylla, EPHHL); test: Greenhouse postemergence trial, % visual injury; conditions: Euphorbia heterophylla, post-emergence
[21] = tested on: nutsedge (Cyperus esculentus, CYPES); test: Greenhouse postemergence trial, % visual injury; format: in vivo; conditions: CYPES
[22] = tested on: wild mustard (Sinapis arvensis, SINAR); test: Greenhouse postemergence trial, % visual injury; format: in vivo; conditions: for % visual injury, Obs: SINAR
[23] = tested on: wild radish (Raphanus raphanistrum, RAPRA); test: Greenhouse postemergence trial, % visual injury; format: in vivo
[24] = tested on: large crabgrass (Digitaria sanguinalis, DIGSA); test: Greenhouse postemergence trial, % visual injury; format: in vivo; conditions: DIGSA
[25] = tested on: common lambsquarters (CHEAL, Chenopodium album L.); test: Greenhouse postemergence trial, % visual injury; format: in vivo; conditions: CHEAL
[26] = tested on: grain sorghum (Sorghum vulgare, SORVU); test: Greenhouse postemergence trial, % visual injury; format: in vivo; conditions: SORVU
[27] = tested on: kochia (KCHSC, Kochia scoparia); test: Greenhouse postemergence trial, % visual injury; format: in vivo; conditions: for % visual injury, Obs.: Table 61
Description: Following the protocol in Example 1, compound 1 and compound 2 were combined with 2,4 D EHE (EC) and applied to kochia (KCHSC, Kochia scoparia) and the phytotoxicity of the herbicidal compositions was measured.
Following the protocol in Example 1, compound 1 (EC) and Compound 2 (SC) were combined with diflufenzopyr and applied to kochia (Kochia scoparia, KCHSC) and the phytotoxicity of the herbicidal composition was measured.

[28] = tested on: Indian hedge mustard (Sisymbrium orientale, SSYOR); test: Greenhouse postemergence trial, % visual injury; format: in vivo
[29] = tested on: pigweed (AMARE, Amaranthus retroflexus); test: Greenhouse postemergence trial, % visual injury; format: in vivo; conditions: AMARE
[30] = tested on: wild oat (Avena fatua, VEFA); test: Greenhouse postemergence trial, % visual injury; format: in vivo; conditions: AVEFA
[31] = tested on: rutabaga (Brassica napus var. napobrassica, BRSNA); test: Greenhouse postemergence trial, % visual injury; format: in vivo; conditions: BRSNA; naptalam 140 g ai/ha
[32] = tested on: Canadian thistle (CIRAR, Cirsium arvense); test: Greenhouse postemergence trial, % visual injury; conditions: CIRAR; naptalam 140 g ai/ha;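 further: plants sprayed at second to third true leaf stage, injury scored visually 20-22 d later against solvent-blank sprayed controls, 0 meaning no injury and 100 complete kill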
[33] = Brassica napus, post-emergence, read-out: % visual injury, Obs

O=C(O)c1cc(I)cc(I)c1I [2,3,5-TIBA, 2,3,5-triiodobenzoic acid, reference compound]
% visual injury, Obs [1]: 10%
% visual injury, Obs ([2]; 2,3,5-TIBA 140 g ai/ha): 0%
% visual injury, Obs ([3]; 2,3,5-TIBA 140 g ai/ha): 0%
% visual injury, Obs ([4]; 2,3,5-TIBA 140 g ai/ha): 0%
pest or weed control at 140 g/ha [5]: 0%
plant injury at 140 g/ha [6, 33]: 5%
% visual injury, Obs ([7]; 2,3,5-TIBA 140 g ai/ha): 20%
% visual injury, Obs ([8]; 2,3,5-TIBA 140 g ai/ha): 0%
% visual injury, Obs ([9]; 2,3,5-TIBA 140 g ai/ha): 0%
% visual injury, Obs ([10]; 2,3,5-TIBA 140 g ai/ha): 0%
% visual injury, Obs ([11]; 2,3,5-TIBA 140 g ai/ha): 0%
% visual injury, Obs ([12]; 2,3,5-TIBA 140 g ai/ha): 0%
% visual injury, Obs ([13]; 2,3,5-TIBA 140 g ai/ha): 0%

Nc1c(F)c(-c2ccc3cc[nH]c3c2F)nc(C(=O)OCc2ccccc2)c1Cl [compound 2]
% visual injury, Obs ([14]; 5 g ae/ha): 10%
% visual injury, Obs ([14]; 10 g ae/ha): 10%
% visual injury (Obs) ([15]; compound 2 SC 2.5 g ae/ha): 30%
% visual injury (Obs) ([15]; compound 2 SC 5 g ae/ha): 70%
pest or weed control at 5 g/ha ([16]; read-out: % visual injury, Obs, IPOHE, 5 g ae/ha): 10%
pest or weed control at 10 g/ha ([16]; read-out: % visual injury, Obs, IPOHE, 10 g ae/ha): 20%
pest or weed control at 5 g/ha ([16]; read-out: % visual injury, Obs, IPOHE, compound 2 (EC) 5 g ae/ha): 10%
pest or weed control at 10 g/ha ([16]; read-out: % visual injury, Obs, IPOHE, compound 2 (EC) 10 g ae/ha): 20%
% visual injury, Obs ([17]; 5 g ae/ha): 0%
% visual injury, Obs ([17]; 10 g ae/ha): 0%
% visual injury, Obs [18]: 3%
% visual injury, Obs [19]: 3%
% visual injury, Obs ([3]; 5 g ae/ha): 30%
% visual injury, Obs ([3]; 10 g ae/ha): 50%
% visual injury (Obs) ([3]; compound 2 SC 5 g ae/ha): 50%
% visual injury (Obs) ([3]; compound 2 SC 10 g ae/ha): 50%
pest or weed control at 5 g/ha ([20]; read-out: % visual injury, Obs, EPHHL, 5 g ae/ha): 35%
pest or weed control at 10 g/ha ([20]; read-out: % visual injury, Obs, EPHHL, 10 g ae/ha): 75%
pest or weed control at 5 g/ha ([20]; read-out: % visual injury, Obs, EPHHL, compound 2 (EC) 5 g ae/ha): 35%
pest or weed control at 10 g/ha ([20]; read-out: % visual injury, Obs, EPHHL, compound 2 (EC) 10 g ae/ha): 75%
% visual injury, Obs ([21]; 5 g ae/ha): 5%
% visual injury, Obs ([21]; 10 g ae/ha): 10%
% visual injury, Obs ([21]; compound 2 (EC) 5 g ae/ha): 5%
% visual injury, Obs ([21]; compound 2 (EC) 10 g ae/ha): 10%
% visual injury, Obs ([22]; 5 g ae/ha): 95%
% visual injury, Obs ([22]; 10 g ae/ha): 100%
% visual injury (Obs) ([22]; compound 2 SC 2.5 g ae/ha): 87%
% visual injury (Obs) ([22]; compound 2 SC 5 g ae/ha): 100% and 94%
% visual injury (Obs) ([22]; compound 2 SC 10 g ae/ha): 100%
pest or weed control at 5 g/ha ([5]; 5 g ae/ha): 78%
pest or weed control at 10 g/ha ([5]; 10 g ae/ha): 95%
pest or weed control at 5 g/ha ([5]; compound 2 (EC) 5 g ae/ha): 78%
pest or weed control at 10 g/ha ([5]; compound 2 (EC) 10 g ae/ha): 95%
% visual injury (Obs) ([23]; compound 2 SC 2.5 g ae/ha): 17%
% visual injury (Obs) ([23]; compound 2 SC 5 g ae/ha): 25%
% visual injury, Obs ([6]; compound 2 (EC) 5 g ae/ha): 30%
% visual injury, Obs ([6]; compound 2 (EC) 10 g ae/ha): 55%
plant injury at 5 g/ha [6, 33]: 30%
plant injury at 10 g/ha [6, 33]: 55%
% visual injury (Obs) ([7]; compound 2 SC 2.5 g ae/ha): 23%
% visual injury (Obs) ([7]; compound 2 SC 5 g ae/ha): 67%
% visual injury, Obs ([8]; 5 g ae/ha): 15%
% visual injury, Obs ([8]; 10 g ae/ha): 40%
% visual injury, Obs ([8]; compound 2 (EC) 5 g ae/ha): 15%
% visual injury, Obs ([8]; compound 2 (EC) 10 g ae/ha): 40%
% visual injury (Obs) ([8]; compound 2 SC 2.5 g ae/ha): 13%
% visual injury (Obs) ([8]; compound 2 SC 5 g ae/ha): 23%
% visual injury (Obs) ([9]; compound 2 SC 5 g ae/ha): 30%
% visual injury (Obs) ([9]; compound 2 SC 10 g ae/ha): 50%
% visual injury, Obs ([24]; compound 2 (EC) 5 g ae/ha): 28%
% visual injury, Obs ([24]; compound 2 (EC) 10 g ae/ha): 53%
pest or weed control at 5 g/ha ([24]; Digitaria sanguinalis, post-emergence, 5 g ae/ha, read-out: % visual injury, Obs): 28%
pest or weed control at 10 g/ha ([24]; Digitaria sanguinalis, post-emergence, 10 g ae/ha, read-out: % visual injury, Obs): 53%
% visual injury, Obs ([25]; 5 g ae/ha): 88%
% visual injury, Obs ([25]; 10 g ae/ha): 99%
% visual injury, Obs ([26]; 5 g ae/ha): 38%
% visual injury, Obs ([26]; 10 g ae/ha): 63%
% visual injury Obs ([27]; 8.75 g ae/ha alone, 20-22 d): 55%
pest or weed control at 5 g/ha ([27]; Bassia scoparia, post-emergence, KCHSC, 5 g ae/ha, read-out: % visual injury, Obs): 30%
pest or weed control at 10 g/ha ([27]; Bassia scoparia, post-emergence, KCHSC, 10 g ae/ha, read-out: % visual injury, Obs): 75%
% visual injury, Obs. ([27]; KCHSC, compound 2 (SC) 8.75 g ae/ha): 84%
% visual injury, Obs. ([27]; KCHSC, compound 2 (SC) 17.5 g ae/ha): 86%
% visual injury (Obs) ([28]; compound 2 SC 2.5 g ae/ha): 20%
% visual injury (Obs) ([28]; compound 2 SC 5 g ae/ha): 40%
% visual injury, Obs ([29]; 5 g ae/ha): 88% and 65%
% visual injury, Obs ([29]; 10 g ae/ha): 100% and 60%
% visual injury, Obs ([29]; compound 2 (EC) 5 g ae/ha): 88%
% visual injury, Obs ([29]; compound 2 (EC) 10 g ae/ha): 100%
% visual injury, Obs ([30]; 5 g ae/ha): 0%
% visual injury, Obs ([30]; 10 g ae/ha): 0%

O=C(O)c1ccccc1C(=O)Nc1cccc2ccccc12 [naptalam, reference compound]
% visual injury, Obs ([2]; naptalam 140 g ai/ha): 0%
% visual injury, Obs ([3]; naptalam 140 g ai/ha): 0%
% visual injury, Obs ([4]; naptalam 140 g ai/ha): 0%
pest or weed control at 140 g/ha [5]: 0%
% visual injury, Obs ([7]; naptalam 140 g ai/ha): 0%
% visual injury, Obs ([8]; naptalam 140 g ai/ha): 0%
% visual injury, Obs ([9]; naptalam 140 g ai/ha): 0%
% visual injury, Obs [31]: 0%
% visual injury, Obs ([10]; naptalam 140 g ai/ha): 0%
% visual injury, Obs ([11]; naptalam 140 g ai/ha): 0%
% visual injury, Obs ([12]; naptalam 140 g ai/ha): 0%
% visual injury, Obs ([13]; naptalam 140 g ai/ha): 0%
% visual injury, Obs [32]: 0%

— patent US9521847B2, “Synergistic weed control from applications of pyridine carboxylic acid herbicides and synthetic auxin herbicides and/or auxin transport inhibitors” (Dow AgroSciences LLC, priority 2014, dated 2016)
